In one assay the target is T1, human renin (Homo sapiens, UniProt P00797).
T1 sequence (P00797 67-406): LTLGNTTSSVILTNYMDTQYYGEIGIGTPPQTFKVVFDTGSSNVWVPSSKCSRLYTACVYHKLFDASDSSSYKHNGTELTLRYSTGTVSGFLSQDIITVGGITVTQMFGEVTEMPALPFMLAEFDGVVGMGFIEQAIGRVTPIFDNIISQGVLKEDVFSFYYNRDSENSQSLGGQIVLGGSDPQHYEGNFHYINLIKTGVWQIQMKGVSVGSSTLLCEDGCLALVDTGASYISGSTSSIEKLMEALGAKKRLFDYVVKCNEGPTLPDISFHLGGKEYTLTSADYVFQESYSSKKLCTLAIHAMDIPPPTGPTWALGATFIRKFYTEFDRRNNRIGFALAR
Description: Human renin-sheep renin substrate reaction system in vitro (angiotensin I by radioimmunoassay). It is filed as biochemical. Particulars: pH 7.4, 15 minutes, 37° C., read-out: IC50 (molar concentration). How it is done: Human renin-sheep renin substrate reaction system in vitro
To a mixture containing 200 μl of a 125 mM pyrophosphate buffer (pH 7.4), 25 μl of a 20 mM aqueous solution of L-phenylalanyl-L-alanyl-L-prolin as an angiotensin cnverting enzyme inhibitor, 50 μl of semipurified sheep renin substrate (2000 ng angiotensin I/ml), 50 μl of dimethyl sulfoxide solution of an amino acid compound of the present invention and 150 μl of deionized water was added 25 μl of purified human renin (20-30 ng angiotensin I/ml/hr. The mixture was incubated for 15 minutes on a water bath at 37° C., and the reaction mixture was allowed to stand for 5 minutes on a water bath at 100° C. to stop the reaction. After cooling, 200 μl of the solution were taken up and the amount of angiotensin I produced by the addition of renin was determined by radiommunoassay. The inhibitory effect was calculated by the following equation.
As a control, the same procedure as above was carried out by using 50 μl of dimethyl sulfoxide alone in place of the 50 μl of dimethyl sulfoxide solution containing an amino acid compound of the present invention.

In assay [1] the target is T2, renin in human high renin plasma (Homo sapiens, UniProt P00797).
T2 construct: 500 μl of human high renin plasma; from tissue; host or cells: human high renin plasma
T2 sequence (P00797 67-406): T1 sequence (P00797 67-406)
Description: Renin inhibitory effect in a human high renin plasma (angiotensin I by radioimmunoassay). The class given is biochemical. Particulars: 60 minutes, 37° C., read-out: IC50 (molar concentration).
Description: A mixture of 350 μl of a 0.5 M phosphate buffer containing 14 mM EDTA 2Na and a 0.3% neomycin sulfate, which was adjusted to the pH of 7, 50 μl of a 20 mM an aqueous solution of L-phenylalanyl-L-alanyl-L-prolin as an angiotensin converting enzyme inhibitor and 100 μl of dimethyl sulfoxide solution containing an amino acid compound of the present invention was added to 500 μl of human high renin plasma, and 200 μl of the mixture was incubated at 4° C. in an ice bath, and remaining mixture (800 μl ) was incubated for 60 minutes at 37° C. in a water bath. A 200 μl sample was withdrawn from the incubated mixture, chilled immediately in an ice bath, and the amount (A) of angiotensin I produced was determined by radioimmunoassay.
Also, the amount (B) of angiotensin I produced in the incubated mixture at 4° C. in an ice bath was determined by radioimmunoassy.
As a control, the same procedure as above was carried out by using 100 μl of dimethyl sulfoxide alone in place of the 100 μl of dimethyl sulfoxide solution containing an amino acid compound of the present invention.
The renin inhibitory effect in human plasa was calculated by taking the amount of angiotensin I (A) from the amount of angiotensin I (B). The inhibotory effect was calculated by the following equation.

On to `COC(=O)C(O)[C@H](CC(C)C)NC(=O)[C@H](Cc1c[nH]cn1)NC(=O)C(CC(=O)N(C)C)Cc1cccc2ccccc12` (mixture of isomers) [Methyl (2RS, 3S)-3-{N-[2-(1-naphthylmethyl)-3-(dimethylcarbamoyl)propionyl]-L-histidyl}amino-2-hydroxy-5-methylhexanoate], for which the IC50 turned out to be 78 nM at human renin and 25 nM in assay [1].
For the compound `CC(C)C[C@H](NC(=O)[C@H](Cc1c[nH]cn1)NC(=O)C(CC(=O)N1CCOCC1)Cc1cccc2ccccc12)[C@@H](O)CC(=O)OC(C)C` (stereo partly drawn) [Isopropyl N-[2-(1-naphthylmethyl)-3-(morphlinocarbonyl)propionyl]-L-histidylstatinate], the IC50 on human renin stood at 66 nM.
On to `COC(=O)C[C@H](O)[C@H](CC(C)C)NC(=O)[C@H](Cc1c[nH]cn1)NC(=O)C(CC(=O)N1CCOCC1)Cc1cccc2ccccc12` (stereo partly drawn) [Methyl N-[2-(1-naphthylmethyl)-3-(morpholinocarbonyl)propionyl]-L-histidylstatinate], for which, in assay [1], the IC50 is 150 nM.

Values taken from patent publication US4656269A, “Histidine derivatives” (Kissei Pharmaceutical Co., Ltd., priority 1986, dated 1987).
